# Laboratory results published in patent US10590113B2, “6-hydroxy-4-oxo-1,4-dihydropyrimidine-5-carboxamides as APJ agonists” (priority 2016, dated 2020).
# Read-outs that look alike come from different tables or passages of the source.
# Biological target: T1, human APJ receptor (Homo sapiens, UniProt P35414)
# T1 construct: expressed in transfected cells; host or cells: HEK293
# T1 sequence (P35414 1-380): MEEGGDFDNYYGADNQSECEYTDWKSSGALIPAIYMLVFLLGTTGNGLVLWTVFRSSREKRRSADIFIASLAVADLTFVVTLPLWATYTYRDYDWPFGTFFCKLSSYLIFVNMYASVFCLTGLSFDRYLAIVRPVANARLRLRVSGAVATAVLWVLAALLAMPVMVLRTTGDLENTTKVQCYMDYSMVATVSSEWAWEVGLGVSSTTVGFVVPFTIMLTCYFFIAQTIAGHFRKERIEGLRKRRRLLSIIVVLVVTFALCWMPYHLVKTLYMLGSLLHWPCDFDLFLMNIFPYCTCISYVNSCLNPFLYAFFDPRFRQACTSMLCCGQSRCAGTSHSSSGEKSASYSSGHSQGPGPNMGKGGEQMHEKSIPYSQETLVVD
# Experiment: Intracellular cAMP Accumulation Assay (APJ hcAMP, HTRF)
# Type: cell-based
# Procedure, shortened: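 Stably transfected HEK293 cells (5,000/well) incubated 30 min at room temperature with serially diluted compound, […] and 2 μM forskolin. cAMP measured by HTRF after 60 min with detection reagents, quantified against a cAMP standard curve; EC50 from variable-slope sigmoidal fit of inhibition of forskolin-stimulated cAMP.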
# [1] = human APJ, intracellular cAMP accumulation, read-out: hAPJ cAMP EC50 Potency range
# [2] = human APJ, cAMP accumulation, potency range class, read-out: hAPJ cAMP EC50 Potency range
Structure (SMILES),EC50 [1],EC50 [2],other results
"CCCCc1nc(=O)c(C(=O)N2CC[C@H](c3ccccc3)C2)c(O)n1-c1c(C2CC2)cccc1C1CC1 [Example 2, (R)-2-Butyl-1-(2,6-dicyclopropylphenyl)-6-hydroxy-5-(3-phenylpyrrolidine-1-carbonyl)pyrimidin-4(1H)-one]",–,–,"EC50 (HEK293 cells stably expressing human APJ receptor, inhibition of forskolin-mediated cAMP production, read-out: Human APJ cAMP EC50 potency range): 0.01 to 10 nM"
"CCCCc1nc(=O)c(C(=O)N2Cc3ccc(F)cc3C2)c(O)n1-c1c(OC)cccc1OC [Example 56, 2-butyl-1-(2,6-dimethoxyphenyl)-5-(5-fluoro-2,3-dihydro-1H-isoindole-2-carbonyl)-6-hydroxy-1,4-dihydropyrimidin-4-one]",0.01 to 10 nM,–,–
"CCCCc1nc(=O)c(C(=O)N2CC[C@H](c3ccccc3)C2)c(O)n1C(C)C [Example 150, 2-butyl-6-hydroxy-5-[(3R)-3-phenylpyrrolidine-1-carbonyl]-3-(propan-2-yl)-3,4-dihydropyrimidin-4-one]",10 to 100 nM,–,–
"CCc1cccc(CC)c1-n1c(-c2ccn(CC(C)C)n2)nc(=O)c(C(=O)N2CCC(c3ccc(F)cn3)C2)c1O (single isomer, unassigned) [Example 318, 1-(2,6-diethylphenyl)-5-[3-(5-fluoropyridin-2-yl)pyrrolidine-1-carbonyl]-6-hydroxy-2-[1-(2-methylpropyl)-1H-pyrazol-3-yl]-1,4-dihydropyrimidin-4-one]",–,0.01 to 10 nM,–
"CCOCc1nc(=O)c(C(=O)N2CCC(c3c(F)cccc3F)C2)c(O)n1-c1c(OC)cccc1OC (single isomer, unassigned) [Example 354, 5-[3-(2,6-difluorophenyl)pyrrolidine-1-carbonyl]-1-(2,6-dimethoxyphenyl)-2-(ethoxymethyl)-6-hydroxy-1,4-dihydropyrimidin-4-one]",–,0.01 to 10 nM,–
"COc1cccc(OC)c1-n1c(-c2cccc(C)n2)nc(=O)c(C(=O)N2CCC(c3ncc(F)cc3F)C2)c1O (single isomer, unassigned) [Example 235, 5-[3-(3,5-difluoropyridin-2-yl)pyrrolidine-1-carbonyl]-1-(2,6-dimethoxyphenyl)-6-hydroxy-2-(6-methylpyridin-2-yl)-1,4-dihydropyrimidin-4-one]",–,0.01 to 10 nM,–
"CCCCc1nc(=O)c(C(=O)N2CCC(c3ccc(Cl)cn3)C2)c(O)n1-c1c(OC)cccc1OC (single isomer, unassigned) [Example 41, 2-butyl-5-(3-(5-chloropyridin-2-yl)pyrrolidine-1-carbonyl)-1-(2,6-dimethoxyphenyl)-6-hydroxypyrimidin-4(1H)-one]",–,–,EC50: 0.01 to 10 nM
"COc1cccc(OC)c1-n1c(Cc2ccc(F)cc2)nc(=O)c(C(=O)N2CCC(c3ccccc3F)C2)c1O (single isomer, unassigned) [Example 231, 1-(2,6-dimethoxyphenyl)-2-[(4-fluorophenyl)methyl]-5-[3-(2-fluorophenyl)pyrrolidine-1-carbonyl]-6-hydroxy-1,4-dihydropyrimidin-4-one]",–,10 to 100 nM,–
"CCCCc1nc(=O)c(C(=O)N2CC[C@@H](OCc3ccccc3)C2)c(O)n1-c1c(OC)cccc1OC [Example 59, 5-[(3R)-3-(benzyloxy)pyrrolidine-1-carbonyl]-2-butyl-1-(2,6-dimethoxyphenyl)-6-hydroxy-1,4-dihydropyrimidin-4-one]",0.01 to 10 nM,–,–
"CC[C@@H](c1ccccc1)n1c(-c2ccc(F)c(C)c2)nc(=O)c(C(=O)N2CC[C@H](c3ccccc3)C2)c1O [Example 314, 2-(4-fluoro-3-methylphenyl)-6-hydroxy-1-[(1S)-1-phenylpropyl]-5-[(3R)-3-phenylpyrrolidine-1-carbonyl]-1,4-dihydropyrimidin-4-one]",–,0.01 to 10 nM,–
"COc1cccc(OC)c1-n1c(-c2ccn(C)n2)nc(=O)c(C(=O)N2CCC(c3c(F)cccc3F)C2)c1O (single isomer, unassigned) [Example 251, 5-[3-(2,6-difluorophenyl)pyrrolidine-1-carbonyl]-1-(2,6-dimethoxyphenyl)-6-hydroxy-2-(1-methyl-1H-pyrazol-3-yl)-1,4-dihydropyrimidin-4-one]",–,0.01 to 10 nM,–
"COc1cccc(OC)c1-n1c(-c2cccc(Cl)c2)nc(=O)c(C(=O)N2CCC(c3ncc(Cl)cc3F)C2)c1O (single isomer, unassigned) [Example 264, 5-[3-(5-chloro-3-fluoropyridin-2-yl)pyrrolidine-1-carbonyl]-2-(3-chlorophenyl)-1-(2,6-dimethoxyphenyl)-6-hydroxy-1,4-dihydropyrimidin-4-one]",–,0.01 to 10 nM,–
"COc1cccc(OC)c1-n1c(CCC2CC2)nc(=O)c(C(=O)N2CCC(c3ncc(Cl)cc3F)C2)c1O (single isomer, unassigned) [Example 176, 5-[3-(5-chloro-3-fluoropyridin-2-yl)pyrrolidine-1-carbonyl]-2-(2-cyclopropylethyl)-1-(2,6-dimethoxyphenyl)-6-hydroxy-1,4-dihydropyrimidin-4-one]",0.01 to 10 nM,–,–
"CCc1cccc(CC)c1-n1c(-c2cnn(CC)c2)nc(=O)c(C(=O)N2CCC(c3ccccc3F)C2)c1O (single isomer, unassigned) [Example 310, 1-(2,6-diethylphenyl)-2-(1-ethyl-1H-pyrazol-4-yl)-5-[3-(2-fluorophenyl)pyrrolidine-1-carbonyl]-6-hydroxy-1,4-dihydropyrimidin-4-one]",–,0.01 to 10 nM,–
"CCn1ccc(-c2nc(=O)c(C(=O)N3CCC(c4ccc(F)cc4F)C3)c(O)n2-c2c(OC)cccc2OC)n1 (single isomer, unassigned) [Example 269, 5-[3-(2,4-difluorophenyl)pyrrolidine-1-carbonyl]-1-(2,6-dimethoxyphenyl)-2-(1-ethyl-1H-pyrazol-3-yl)-6-hydroxy-1,4-dihydropyrimidin-4-one]",–,0.01 to 10 nM,–
"COc1cccc(OC)c1-n1c(CC2CC2)nc(=O)c(C(=O)N2CC[C@H](c3ccccc3)C2)c1O [Example 32, (R)-2-(cyclopropylmethyl)-3-(2,6-dimethoxyphenyl)-6-hydroxy-5-(3-phenylpyrrolidine-1-carbonyl)pyrimidin-4(3H)-one]",0.01 to 10 nM,–,–
"CCCCc1nc(=O)c(C(=O)N2CC[C@H](c3ccccc3)C2)c(O)n1C(C)c1ccccc1Cl (stereo partly drawn) [Example 134, 2-butyl-3-[1-(2-chlorophenyl)ethyl]-6-hydroxy-5-[(3R)-3-phenylpyrrolidine-1-carbonyl]-3,4-dihydropyrimidin-4-one]",10 to 100 nM,–,–
"CCOCc1nc(=O)c(C(=O)N2CCC(c3ccccn3)C2)c(O)n1-c1c(OC)cccc1OC (single isomer, unassigned) [Example 54, 1-(2,6-dimethoxyphenyl)-2-(ethoxymethyl)-6-hydroxy-5-[3-(pyridin-2-yl)pyrrolidine-1-carbonyl]-1,4-dihydropyrimidin-4-one]",0.01 to 10 nM,–,–
"CCc1cccc(CC)c1-n1c(COC(C)C)nc(=O)c(C(=O)N2CCC(c3ccncc3)C2)c1O (single isomer, unassigned) [Example 221, 1-(2,6-diethylphenyl)-6-hydroxy-2-[(propan-2-yloxy)methyl]-5-[3-(pyridin-4-yl)pyrrolidine-1-carbonyl]-1,4-dihydropyrimidin-4-one]",–,10 to 100 nM,–
"CCOCc1nc(=O)c(C(=O)N2CCC(c3ccc(F)cc3)C2)c(O)n1-c1c(OC)cccc1OC (single isomer, unassigned) [Example 81, 1-(2,6-dimethoxyphenyl)-2-(ethoxymethyl)-5-[3-(4-fluorophenyl)pyrrolidine-1-carbonyl]-6-hydroxy-1,4-dihydropyrimidin-4-one]",0.01 to 10 nM,–,–
"COc1cccc(OC)c1-n1c(-c2cc(C)ccn2)nc(=O)c(C(=O)N2CCC(c3ccc(F)cc3F)C2)c1O (single isomer, unassigned) [Example 262, 5-[3-(2,4-difluorophenyl)pyrrolidine-1-carbonyl]-1-(2,6-dimethoxyphenyl)-6-hydroxy-2-(4-methylpyridin-2-yl)-1,4-dihydropyrimidin-4-one]",–,0.01 to 10 nM,–
"COc1cccc(OC)c1-n1c(CCC2CC2)nc(=O)c(C(=O)N2CCC(c3ncccc3F)C2)c1O (single isomer, unassigned) [Example 179, 2-(2-cyclopropylethyl)-1-(2,6-dimethoxyphenyl)-5-[3-(3-fluoropyridin-2-yl)pyrrolidine-1-carbonyl]-6-hydroxy-1,4-dihydropyrimidin-4-one]",0.01 to 10 nM,–,–
"COc1cccc(OC)c1-n1c(-c2cccc(C)c2)nc(=O)c(C(=O)N2CCC(c3ccccc3C#N)C2)c1O (single isomer, unassigned) [Example 242, 2-{1-[1-(2,6-dimethoxyphenyl)-6-hydroxy-2-(3-methylphenyl)-4-oxo-1,4-dihydropyrimidine-5-carbonyl]pyrrolidin-3-yl}benzonitrile]",–,0.01 to 10 nM,–
"COc1cccc(OC)c1-n1c(CC2CC2)nc(=O)c(C(=O)N2CCC(c3ccc(Cl)nc3)CC2)c1O [Example 227, 5-[4-(6-chloropyridin-3-yl)piperidine-1-carbonyl]-2-(cyclopropylmethyl)-1-(2,6-dimethoxyphenyl)-6-hydroxy-1,4-dihydropyrimidin-4-one]",–,10 to 100 nM,–
"CCCCc1nc(=O)c(C(=O)N2CC[C@H](c3ccccc3)C2)c(O)n1C(C)c1cccnc1 (stereo partly drawn) [Example 140, 2-butyl-6-hydroxy-5-[(3R)-3-phenylpyrrolidine-1-carbonyl]-3-[1-(pyridin-3-yl)ethyl]-3,4-dihydropyrimidin-4-one]",10 to 100 nM,–,–
"CC[C@@H](c1cc(F)cc(F)c1)n1c(-c2ccn(C)n2)nc(=O)c(C(=O)N2CCC(c3ncccc3F)C2)c1O (single isomer, unassigned) [Example 189]",0.01 to 10 nM,–,–
